Experimental data as given in ChEMBL document CHEMBL1201862, “PubChem BioAssay data set” (2004).
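Results reflect a 48-hour exposure of cells in 96-well plates to compound at five concentrations. GI50 = concentration required for 50% inhibition of growth.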 Calls of active or inactive are those of the source. Rule as the data show it: active = GI50 up to about 1.1 µM and inactive = higher. Where a SMILES comes first, the peptide text is derived from it. The star is where a group is joined. X33 = O=C(c1ccc(-c2ccc(Cl)cc2Cl)o1)*

Columns and labels:
Assay in all cases: NCI anticancer screen, dose series, 48 h
A549 = system: A549
OVCAR-4 = system: OVCAR-4
HOP-92 = system: HOP-92
RXF 393 = system: RXF 393
OVCAR-3 = system: OVCAR-3
MDA-MB-231 = system: MDA-MB-231
UO-31 = system: UO-31
K562 = system: K562
T47D = system: T47D
NCI-H23 = system: NCI-H23
SF-539 = system: SF-539
HOP-62 = system: HOP-62
SR = system: SR
HL-60 = system: HL-60
COLO 205 = system: COLO 205
ACHN = system: ACHN
SK-MEL-28 = system: SK-MEL-28
SF-268 = system: SF-268
CCRF-CEM = system: CCRF-CEM

CCN(CC)C(=O)Cn1c2ccccc2[n+]2cc(N)ccc12
GI50 (A549): > 100 µM (inactive) | GI50 (OVCAR-4): > 100 µM (inactive) | GI50 (HOP-92): > 100 µM (inactive) | GI50 (RXF 393): > 100 µM (inactive) | GI50 (OVCAR-3): > 100 µM (inactive) | GI50 (MDA-MB-231): > 100 µM (inactive) | GI50 (UO-31): > 100 µM (inactive) | GI50 (K562): > 100 µM (inactive) | GI50 (T47D): > 100 µM (inactive) | GI50 (NCI-H23): > 100 µM (inactive) | GI50 (SF-539): > 100 µM (inactive) | GI50 (HOP-62): > 100 µM (inactive) | GI50 (SR): > 100 µM (inactive) | GI50 (HL-60): > 100 µM (inactive) | GI50 (COLO 205): > 100 µM (inactive) | GI50 (ACHN): > 100 µM (inactive) | GI50 (SK-MEL-28): > 100 µM (inactive) | GI50 (SF-268): > 100 µM (inactive) | GI50 (CCRF-CEM): > 100 µM (inactive)

CCOC(=O)C[n+]1cccc(C2(c3cc4ccccc4[nH]3)OCCO2)c1
GI50 (A549): > 100 µM (inactive) | GI50 (OVCAR-4): > 100 µM (inactive) | GI50 (HOP-92): > 100 µM (inactive) | GI50 (RXF 393): > 100 µM (inactive) | GI50 (OVCAR-3): > 100 µM (inactive) | GI50 (MDA-MB-231): > 100 µM (inactive) | GI50 (UO-31): > 100 µM (inactive) | GI50 (K562): > 100 µM (inactive) | GI50 (T47D): > 100 µM (inactive) | GI50 (NCI-H23): > 100 µM (inactive) | GI50 (SF-539): > 100 µM (inactive) | GI50 (HOP-62): > 100 µM (inactive) | GI50 (SR): > 100 µM (inactive) | GI50 (HL-60): > 100 µM (inactive) | GI50 (COLO 205): > 100 µM (inactive) | GI50 (ACHN): > 100 µM (inactive) | GI50 (SK-MEL-28): > 100 µM (inactive) | GI50 (SF-268): > 100 µM (inactive) | GI50 (CCRF-CEM): > 100 µM (inactive)

O=S1(=O)c2ccccc2N2C(c3ccccc3)=NOC2(c2ccccc2)CC1c1ccc(Br)cc1 (stereo not drawn)
GI50 (A549): > 100 µM (inactive) | GI50 (OVCAR-4): > 100 µM (inactive) | GI50 (HOP-92): 32.4 µM (inactive) | GI50 (RXF 393): > 100 µM (inactive) | GI50 (OVCAR-3): > 100 µM (inactive) | GI50 (MDA-MB-231): > 100 µM (inactive) | GI50 (UO-31): > 100 µM (inactive) | GI50 (K562): > 100 µM (inactive) | GI50 (T47D): > 100 µM (inactive) | GI50 (NCI-H23): > 100 µM (inactive) | GI50 (SF-539): > 100 µM (inactive) | GI50 (HOP-62): > 100 µM (inactive) | GI50 (SR): > 100 µM (inactive) | GI50 (HL-60): > 100 µM (inactive) | GI50 (COLO 205): > 100 µM (inactive) | GI50 (ACHN): > 100 µM (inactive) | GI50 (SK-MEL-28): > 100 µM (inactive) | GI50 (SF-268): > 100 µM (inactive) | GI50 (CCRF-CEM): > 100 µM (inactive)

CCC1CCC2c3c([nH]c4ccc(C)cc34)C3C(=O)N(N(C)C)C(=O)C3C2C1 (stereo not drawn)
GI50 (A549): 15.9 µM (inactive) | GI50 (OVCAR-4): 34 µM (inactive) | GI50 (HOP-92): 38.7 µM (inactive) | GI50 (RXF 393): 8.05 µM (inactive) | GI50 (OVCAR-3): 0.787 µM (active) | GI50 (MDA-MB-231): 72.8 µM (inactive) | GI50 (UO-31): > 75 µM (inactive) | GI50 (K562): 2.62 µM (inactive) | GI50 (T47D): 7.93 µM (inactive) | GI50 (NCI-H23): > 67.3 µM (inactive) | GI50 (SF-539): 18.2 µM (inactive) | GI50 (HOP-62): > 27 µM (inactive) | GI50 (SR): 3.17 µM (inactive) | GI50 (HL-60): 3.05 µM (inactive) | GI50 (COLO 205): 4.36 µM (inactive) | GI50 (ACHN): 91.2 µM (inactive) | GI50 (SK-MEL-28): > 83.4 µM (inactive) | GI50 (SF-268): 7.62 µM (inactive) | GI50 (CCRF-CEM): 12.7 µM (inactive)

CCOC(=O)C1(Cc2ccc(C)cc2)Cc2ccc(C)cc2C1=O (stereo not drawn)
GI50 (A549): 20.9 µM (inactive) | GI50 (OVCAR-4): 36.4 µM (inactive) | GI50 (HOP-92): 14.6 µM (inactive) | GI50 (RXF 393): 4.6 µM (inactive) | GI50 (OVCAR-3): 18.5 µM (inactive) | GI50 (MDA-MB-231): 16.5 µM (inactive) | GI50 (UO-31): 38.5 µM (inactive) | GI50 (K562): 1.88 µM (inactive) | GI50 (T47D): 12.4 µM (inactive) | GI50 (NCI-H23): 18.5 µM (inactive) | GI50 (SF-539): 19.8 µM (inactive) | GI50 (HOP-62): 21.1 µM (inactive) | GI50 (SR): 3.61 µM (inactive) | GI50 (HL-60): 2.55 µM (inactive) | GI50 (COLO 205): 11.7 µM (inactive) | GI50 (ACHN): 41.7 µM (inactive) | GI50 (SK-MEL-28): 20.2 µM (inactive) | GI50 (SF-268): 48.4 µM (inactive) | GI50 (CCRF-CEM): 8.05 µM (inactive)

N#Cc1nc(-c2ccccc2C(=O)O)oc1N
GI50 (A549): > 100 µM (inactive) | GI50 (OVCAR-4): > 100 µM (inactive) | GI50 (HOP-92): > 100 µM (inactive) | GI50 (RXF 393): > 100 µM (inactive) | GI50 (OVCAR-3): > 100 µM (inactive) | GI50 (MDA-MB-231): > 100 µM (inactive) | GI50 (UO-31): > 100 µM (inactive) | GI50 (K562): > 100 µM (inactive) | GI50 (T47D): > 100 µM (inactive) | GI50 (NCI-H23): > 100 µM (inactive) | GI50 (SF-539): > 100 µM (inactive) | GI50 (HOP-62): > 100 µM (inactive) | GI50 (SR): > 100 µM (inactive) | GI50 (HL-60): > 100 µM (inactive) | GI50 (COLO 205): > 100 µM (inactive) | GI50 (ACHN): > 100 µM (inactive) | GI50 (SK-MEL-28): > 100 µM (inactive) | GI50 (SF-268): > 100 µM (inactive) | GI50 (CCRF-CEM): > 100 µM (inactive)

CCC(C)C(NC(=O)CNC(=O)C(Cc1ccccc1)NC(=O)C1CCCN1C(=O)c1ccc(-c2ccc(Cl)cc2Cl)o1)C(=O)OC (stereo not drawn) (X33-PFGI-OMe; configuration not given here)
GI50 (A549): 23.9 µM (inactive) | GI50 (OVCAR-4): 28.6 µM (inactive) | GI50 (HOP-92): 11.2 µM (inactive) | GI50 (RXF 393): 19.4 µM (inactive) | GI50 (OVCAR-3): 23.5 µM (inactive) | GI50 (MDA-MB-231): 24.7 µM (inactive) | GI50 (UO-31): 36.8 µM (inactive) | GI50 (K562): 22 µM (inactive) | GI50 (T47D): 25.3 µM (inactive) | GI50 (NCI-H23): 34.1 µM (inactive) | GI50 (SF-539): 27.2 µM (inactive) | GI50 (HOP-62): 31.1 µM (inactive) | GI50 (SR): 12.5 µM (inactive) | GI50 (HL-60): 3.47 µM (inactive) | GI50 (COLO 205): 31.6 µM (inactive) | GI50 (ACHN): 33.8 µM (inactive) | GI50 (SK-MEL-28): 27.3 µM (inactive) | GI50 (SF-268): 69.2 µM (inactive) | GI50 (CCRF-CEM): 8.09 µM (inactive)
